One assay deals with KMS11 cells. In words: Cell proliferation assay. Format: cell-based. The note with it: KMS-11, 72 h; KMS11 human myeloma cell line, 3 days, CellTiter-Glo. On the procedure: KMS11 (human myeloma cell line), were cultured in IMDM supplemented with 10% FBS, sodium pyruvate and antibiotics. Cells were plated in the same medium at a density of 2000 cells per well into 96 well tissue culture plates, with outside wells vacant, on the day of assay. MM1.s (human myeloma cell line), were cultured in RPMI1640 supplemented with 10% FBS, sodium pyruvate and antibiotics. Cells were plated in the same medium at a density of 5000 cells per well into 96 well tissue culture plates, with outside wells vacant, on the day of assay.
Test compounds supplied in DMSO were diluted into DMSO at 500 times the desired final concentrations before dilution into culture media to 2 times final concentrations. Equal volumes of 2× compounds were added to the cells in 96 well plates and incubated at 37° C. for 3 days.
After 3 days plates were equilibrated to room temperature and equal volume of CellTiter-Glow Reagent (Promega) was added to the culture wells. The plates were agitated briefly and luminescent signal was measured with luminometer. The percent inhibition of the signal seen in cells treated with DMSO alone vs. cells treated with control compound was calculated and used to determine EC50 values (i.e., the concentration of a test compound that is required to obtain 50% of the maximum effect in the cells) for tested compounds, as shown in Example 24.
In general terms: In ATP-based viability assays light output follows the ATP content of the culture.

The next assay deals with PIM1 (Homo sapiens (Human), UniProt P11309). In words: Pim1 ATP depletion assay. The conditions noted are these: 20 μM ATP, 40 μM BAD peptide. Format: biochemical. On the procedure:
The activity of PIM1 is measured using a luciferase-luciferin based ATP detection reagent to quantify ATP depletion resulting from kinase-catalyzed phosphoryl transfer to a peptide substrate. Compounds to be tested are dissolved in 100% DMSO and directly distributed into white 384-well plates at 0.5 μA per well. To start the reaction, 10 μl of 5 nM Pim1 kinase and 80 μM BAD peptide (RSRHSSYPAGT-OH) in assay buffer (50 mM HEPES pH 7.5, 5 mM MgCl2, 1 mM DTT, 0.05% BSA) is added into each well. After 15 minutes, 10 μl of 40 μM ATP in assay buffer is added. Final assay concentrations are 2.5 nM PIM1, 20 μM ATP, 40 μM BAD peptide and 2.5% DMSO. The reaction is performed until approximately 50% of the ATP is depleted, then stopped with the addition of 20 μl KinaseGlo Plus (Promega Corporation) solution. The stopped reaction is incubated for 10 minutes and the remaining ATP detected via luminescence on the Victor2 (Perkin Elmer). […] IC50, the half maximal inhibitory concentration, represents the concentration of a test compound that is required for 50% inhibition of its target in vitro.

The target in another assay is PIM3 (Homo sapiens (Human), UniProt Q86V86). In words: Pim3 ATP depletion assay. Format: biochemical. The note with it: 40 μM ATP, 100 μM BAD peptide. Here is the method: The activity of PIM3 is measured using a luciferase-luciferin based ATP detection reagent to quantify ATP depletion resulting from kinase-catalyzed phosphoryl transfer to a peptide substrate. Compounds to be tested are dissolved in 100% DMSO and directly distributed into white 384-well plates at 0.5 μA per well. To start the reaction, 10 μl of 10 nM Pim3 kinase and 200 μM BAD peptide (RSRHSSYPAGT-OH) in assay buffer (50 mM HEPES pH 7.5, 5 mM MgCl2, 1 mM DTT, 0.05% BSA) is added into each well. After 15 minutes, 10 μl of 80 μM ATP in assay buffer is added. Final assay concentrations are 5 nM PIM1, 40 μM ATP, 100 μM BAD peptide and 2.5% DMSO. The reaction is performed until approximately 50% of the ATP is depleted, then stopped by the addition of 20 μl KinaseGlo Plus (Promega Corporation) solution. The stopped reaction is incubated for 10 minutes and the remaining ATP detected via luminescence on the Victor2 (Perkin Elmer).

A further assay addresses PIM2 (Homo sapiens (Human), UniProt Q9P1W9). Put plainly: Pim2 ATP depletion assay. Type of assay: biochemical. The note with it: 4 μM ATP, 10 μM BAD peptide. Here is the method: The activity of PIM2 is measured using a luciferase-luciferin based ATP detection reagent to quantify ATP depletion resulting from kinase-catalyzed phosphoryl transfer to a peptide substrate. Compounds to be tested are dissolved in 100% DMSO and directly distributed into white 384-well plates at 0.5 μl per well. To start the reaction, 10 μl of 10 nM Pim2 kinase and 20 μM BAD peptide (RSRHSSYPAGT-OH) in assay buffer (50 mM HEPES pH 7.5, 5 mM MgCl2, 1 mM DTT, 0.05% BSA) is added into each well. After 15 minutes, 10 μl of 8 μM ATP in assay buffer is added. Final assay concentrations are 5 nM PIM2, 4 μM ATP, 10 μM BAD peptide and 2.5% DMSO. The reaction is performed until approximately 50% of the ATP is depleted, then stopped with the addition of 20 μl KinaseGlo Plus (Promega Corporation) solution. The stopped reaction is incubated for 10 minutes and the remaining ATP detected via luminescence on the Victor2 (Perkin Elmer).

SMILES strings stand for the structures.

Chain of PIM1 (P11309 whole entry, species assumed): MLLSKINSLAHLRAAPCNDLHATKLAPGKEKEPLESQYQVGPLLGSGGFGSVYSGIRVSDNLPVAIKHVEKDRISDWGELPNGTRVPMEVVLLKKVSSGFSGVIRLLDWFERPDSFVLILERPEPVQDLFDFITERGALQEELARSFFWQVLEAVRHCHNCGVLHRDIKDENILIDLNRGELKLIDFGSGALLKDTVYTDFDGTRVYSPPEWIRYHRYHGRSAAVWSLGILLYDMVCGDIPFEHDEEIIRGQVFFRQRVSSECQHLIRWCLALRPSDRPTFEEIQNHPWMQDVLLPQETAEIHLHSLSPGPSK
Chain of PIM2 (Q9P1W9 whole entry, species assumed): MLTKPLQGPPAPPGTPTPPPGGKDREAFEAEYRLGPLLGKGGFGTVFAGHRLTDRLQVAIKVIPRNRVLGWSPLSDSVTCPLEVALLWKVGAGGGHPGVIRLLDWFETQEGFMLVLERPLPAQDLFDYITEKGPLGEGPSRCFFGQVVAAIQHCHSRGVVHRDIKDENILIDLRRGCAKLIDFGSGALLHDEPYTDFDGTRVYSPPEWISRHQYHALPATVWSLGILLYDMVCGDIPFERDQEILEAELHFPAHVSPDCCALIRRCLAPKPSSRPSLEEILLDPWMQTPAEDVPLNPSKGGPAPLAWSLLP

Regarding `C[C@@H]1C[C@H](N)CN(c2ccncc2Nc2cccc3cnc(-c4c(F)cccc4F)nc23)C1` [Example 15, N-(4-((3S,5R)-3-amino-5-methylpiperidin-1-yl)pyridin-3-yl)-2-(2,6-difluorophenyl)quinazolin-8-amine], in the assay on KMS11 cells, the response was half-maximal at 2.6 µM (EC50). The IC50 at PIM1 worked out at 0.018 µM; against PIM3 it was 0.019 µM; against PIM2, 0.009 µM.
Turning to `N[C@H]1CCCN(c2ccncc2Nc2cccc3cnc(-c4nccs4)nc23)C1` [Example 16, (S)-N-(4-(3-aminopiperidin-1-yl)pyridin-3-yl)-2-(thiazol-2-yl)quinazolin-8-amine], the IC50 against PIM1 is 0.411 µM; against PIM3 it was 0.149 µM; at PIM2, 1.9 µM.
Regarding `N[C@H]1CCCN(c2ccncc2Nc2cccc3cnc(-c4cccc(-c5nccs5)c4)nc23)C1` [Example 19, (S)-N-(4-(3-aminopiperidin-1-yl)pyridin-3-yl)-2-(3-(thiazol-2-yl)phenyl)quinazolin-8-amine], the IC50 is 0.056 µM at PIM1, 0.095 µM on PIM3 and 2 µM at PIM2.
The corresponding values for `N[C@H]1CCCN(c2ccncc2Nc2cccc3cnc(-c4ccccc4F)nc23)C1` [Example 18, (S)-N-(4-(3-aminopiperidin-1-yl)pyridin-3-yl)-2-(2-fluorophenyl)quinazolin-8-amine] are 0.029 µM, 0.018 µM and 0.131 µM.
The corresponding values for `N[C@@H]1CN(c2ccncc2Nc2cccc3cnc(-c4c(F)cccc4F)nc23)CC[C@H]1O` [Example 3, (3R,4R)-3-amino-1-(3-(2-(2,6-difluorophenyl)-quinazolin-8-ylamino)-pyridin-4-yl)piperidin-4-ol] are 0.184 µM, 0.067 µM and 0.23 µM.
The corresponding values for `N[C@@H]1CCCN(c2ccncc2Nc2cccc3cnc(-c4c(F)cccc4F)nc23)C1` [Example 7, (R)-N-(4-(3-aminopiperidin-1-yl)pyridin-3-yl)-2-(2,6-difluorophenyl)quinazolin-8-amine] are 2.1 µM, 0.212 µM and 3.6 µM.
For `CCO[C@@H]1C[C@H](N)CN(c2ccncc2Nc2cccc3cnc(-c4c(F)cccc4F)nc23)C1` [Example 6, N-(4-((3S,5R)-3-amino-5-ethoxypiperidin-1-yl)pyridin-3-yl)-2-(2,6-difluorophenyl)quinazolin-8-amine], the values for the 50% inhibitory concentration (IC50) against PIM1, against PIM3 and against PIM2 were 1.7 µM, 2.1 µM and 0.46 µM, respectively.
The corresponding values for `N[C@@H]1CN(c2ccncc2Nc2cccc3cnc(-c4c(F)cccc4F)nc23)CC[C@H]1F` [Example 9, N-(4-((3R,4R)-3-amino-4-fluoropiperidin-1-yl)pyridin-3-yl)-2-(2,6-difluorophenyl)quinazolin-8-amine] are 0.465 µM, 0.17 µM and 0.498 µM.
The corresponding values for `C[C@H]1C[C@@H](N)CN(c2ccncc2Nc2cccc3cnc(-c4c(F)cccc4F)nc23)C1` [Example 14, N-(4-((3R,5S)-3-amino-5-methylpiperidin-1-yl)pyridin-3-yl)-2-(2,6-difluorophenyl)quinazolin-8-amine] are 0.882 µM, 0.18 µM and 0.852 µM.
In the case of `N[C@H]1C[C@@H](CF)CN(c2ccncc2Nc2cccc3cnc(-c4c(F)cccc4F)nc23)C1` [Example 13, N-(4-((3S,5R)-3-amino-5-(fluoromethyl)piperidin-1-yl)pyridin-3-yl)-2-(2,6-difluorophenyl)quinazolin-8-amine], the concentration giving a half-maximal response (EC50) with KMS11 cells amounted to 7.3 µM. In addition, the results for the concentration for half-maximal inhibition (IC50) at PIM1, on PIM3 and against PIM2 were 0.053 µM, 0.049 µM and 0.02 µM, respectively.
Consider `NC1CCCCN(c2ccncc2Nc2cccc3cnc(-c4c(F)cccc4F)nc23)C1` (centres unmarked) [Example 11, N-(4-(3-aminoazepan-1-yl)pyridin-3-yl)-2-(2,6-difluorophenyl)quinazolin-8-amine], for which the results for the IC50 against PIM1, against PIM3 and against PIM2 were 2.9 µM, 0.468 µM and above 25 µM, respectively.
Turning to `NC1CC(N)CN(c2ccncc2Nc2cccc3cnc(-c4c(F)cccc4F)nc23)C1` (centres unmarked) [Example 8, 1-(3-(2-(2,6-difluorophenyl)quinazolin-8-ylamino)pyridin-4-yl)piperidine-3,5-diamine], the concentration for half-maximal inhibition (IC50) on PIM1 was determined as 2.3 µM; at PIM3, 0.246 µM; at PIM2, 2.5 µM.
The corresponding values for `N[C@@H]1CN(c2ccncc2Nc2cccc3cnc(-c4c(F)cccc4F)nc23)CC[C@@H]1O` [Example 2, (3R,4S)-3-amino-1-(3-(2-(2,6-difluorophenyl)-quinazolin-8-ylamino)-pyridin-4-yl)piperidin-4-ol] are 0.039 µM, 0.018 µM and 0.09 µM.
The corresponding values for `N[C@H]1CN(c2ccncc2Nc2cccc3cnc(-c4c(F)cccc4F)nc23)CC[C@@H]1F` [Example 10, N-(4-((3S,4S)-3-amino-4-fluoropiperidin-1-yl)pyridin-3-yl)-2-(2,6-difluorophenyl)quinazolin-8-amine] are 4.7 µM, 0.502 µM and above 25 µM.
The corresponding values for `N[C@H]1CCCN(c2ncncc2Nc2cccc3cnc(-c4c(F)cccc4F)nc23)C1` [Example 12, (S)-N-(4-(3-aminopiperidin-1-yl)pyrimidin-5-yl)-2-(2,6-difluorophenyl)quinazolin-8-amine] are 5.4 µM, 3.9 µM and above 25 µM.
As to `NC1C=C(c2ccncc2Nc2cccc3cnc(-c4c(F)cccc4F)nc23)CCC1` (centres unmarked) [Example 1, N-(4-(3-aminocyclohex-1-enyl)pyridin-3-yl)-2-(2,6-difluorophenyl)quinazolin-8-amine], the half-inhibitory concentration (IC50) at PIM1 is 0.152 µM; at PIM3 it was 0.078 µM; against PIM2 it was 0.392 µM.
For the molecule `N[C@H]1CCCN(c2ccncc2Nc2cccc3cnc(-c4c(F)cccc4F)nc23)C1` [Example 17, (S)-N-(4-(3-aminopiperidin-1-yl)pyridin-3-yl)-2-(2,6-difluorophenyl)quinazolin-8-amine], the IC50 on PIM1 is 0.021 µM; against PIM3, 0.016 µM; at PIM2 it was 0.031 µM.

By EC50 is commonly meant the concentration needed to bring the measured effect to its halfway point. Higher therefore signals a less potent agent. As usually defined, the IC50 is the concentration needed to halve the response being measured. Higher therefore signals a need for much substance.

The values are drawn from patent US8759338B2, “Heterocyclic kinase inhibitors” (Novartis AG, priority 2008, dated 2014).
